This note sets out measurements from patent US7838271B2, “Microbiological method for producing amides” (priority 2001, dated 2010).

What all share (format): cell-based
The subject of test [1] is Rhodococcus sp. FZ4. The method, then:
(§1) The preculture medium of Table 2 was inoculated with strain Rhodococcus sp. FZ4 (DSM 13597), followed by incubation with shaking at 28° C. for 1 to 2 days. The preculture was transferred into the culture medium of Table 5, which contained different inducers, and cultured with shaking at 28° C. for 3 days. Nitrile hydratase activity was determined according to Example 1. Rhodococcus sp.

Test [2] has as its system Rhodococcus sp. FZ4 nitrile hydratase. The method, then: (§2) Nitrile hydratase activity was determined by incubating a reaction mixture comprising 3-cyanopyridine (1.0 M; 1.0 ml), potassium phosphate buffer (0.1 M, pH 7.0; 0.5 ml) and cell suspension (0.5 ml) with stirring at 20° C. for 5 min. The reaction was stopped by adding HCI (5 M; 0.1 ml). After filtration (0.2 μm filter) of the reaction mixture, the amount of nicotinamide produced was determined by means of HPLC (Waters Spherisorb 5 μ ODS2 (4.6×150 mm); KH2P04/H3P04 (10 mM; pH 2.8)/acetonitrile=9:1 (v/v); 1 ml/min; 230 nm). The total activity is expressed as μmol of nicotinamide produced/ (min×ml) and the specific activity is expressed as μmol of nicotinamide produced/(min×ml×OD610 nm).
as §1

Test [3] has the same test system. The method, then:
as §2
(§3) A cell suspension was incubated at different nicotinamide concentrations in the range from 0 to 20% (w/v) at 20° C. for 24 h. The cells were removed, washed and resuspended in potassium phosphate buffer (0.1 M; pH 7.0).
(§4) The influence of nicotinamide concentration on the nitrile hydratase activities of Rhodococcus sp. FZ4, Rhodococcus sp. GF270, Amycolatopsis sp. NA40 and Rhodococcus rhodochrous J1 was determined according to Example 9 using the respective microorganism and the nicotinamide concentration indicated in Table 11.
The source holds these as a separate data set.

For test [4], the system named is Rhodococcus sp. GF270 nitrile hydratase. The method, then: as §2, §3, §4

In test [1], `NC(=O)c1cccnc1` [Nicotinamide] gave a Growth of 3.55 OD610 nm. For the same compound, in test [2], the Specific activity is on record as 1.39 μmol/(min × ml × OD610 nm) and the Total activity was found to be 4.94 µmol/min/mL. In test [3], the Relative activity stood at 100% and the “nitrile hydratase activity after incubation with nicotinamide” value was “corresponded approximately to the original nitrile hydratase activity”. Also, in test [4], the Relative activity is reported as 100%.
